Measured values as given in patent US11234960B2, “Compositions and methods for improving mitochondrial function and treating neurodegenerative diseases and cognitive disorders” (Amazentis SA, priority 2010, dated 2022).

What was measured:
HFD-fed C57BL6/J mice = assay: Oral glucose tolerance test in HFD-fed mice; format: in vivo; conditions: 10 weeks of treatment (FIG. 24)
Protocol: Mice in different treatment groups were administered (i) urolithin A mixed with food (food admix) to reach a dosing of 55 mg/kg body weight/day (mkd); (ii) ellagic acid mixed with food (food admix) to reach a dosing of 75 mkd; (iii) punicalagin (gavage) to reach a dosing of 90 mkd; or (iv) pomegranate extract (PE) (gavage) to reach a dosing of 140 mkd of total polyphenols. A typical pomegranate extract used in these experiments had the following composition: polyphenols, 140 mkd; punicalagin, 13.1 mkd; and ellagic acid, 13.2 mkd. For animals treated by gavage, gavage was performed daily (7 days/week) between 8:00 and 10:00 a.m.; compounds were mixed with saline solution (0.9% NaCl) and provided at a final volume of 5 mL/kg of body weight. Mice in high-fat control groups were fed with the same diet as the experimental animals. Mice in corresponding different control groups were administered either high-fat diet alone or high-fat diet plus daily gavage with vehicle (saline). Another control group of mice were fed standard chow diet alone.
Male C57BL6/J mice were grouped and treated as described in Example 7. In addition, glucose tolerance test (GTT) was performed for HFD-fed mice which developed glucose intolerance. Glucose tolerance test was monitored 10 weeks after the initiation of the treatment by Oral Glucose Tolerance Test (oGTT). Animals were fasted for 12 h (from 8 pm to 8 am) before oGTT. The day of the oGTT, a small drop of blood (<2 μL) was collected from the lateral tail vein and glycemia was monitored using a glucometer (AccuCheck Aviva, Roche Diagnosis). Each animal then received, at time 0, an oral dose of D-glucose at a dosing of 2 g/kg body weight. Glycemia was then monitored at times 15, 30, 45, 60, 90, 120, and 150 min after oral glucose load.

PC-12 cells = assay: Neurite outgrowth in NGF-differentiated PC-12 cells; format: cell-based, rat; conditions: 0.5 μM; for percent of cells showing significant outgrowth (>20 μm), increase vs differentiated cells: 72 h (FIG. 8); for number of processes, increase: 72 h, differentiated PC-12 cells (FIG. 9)
Protocol: The ellagitannins and their metabolites tested in the assays were synthesized or purchased from suppliers which included Funakoshi, Sigma, and Chemos. Stock solutions were aliquoted and stored at −20° C.
PC-12 cells (ATCC CRL-1721) were cultured at 37° C., 5% CO2 in poly L-lysine-coated culture flasks in complete culture medium (RPMI 1640+10% heat-inactivated horse serum+5% fetal bovine serum).
Cell differentiation was performed in culture flasks 24 h after plating, in complete medium supplemented with 100 ng/mL NGF (2.5 S NGF, Invitrogen). The NGF-supplemented medium was renewed every third day, and differentiation was induced over an 8-day period.
All compounds to be tested were prepared just before the experiment as a 50 mM stock solution in dimethylsulfoxide (DMSO). The final DMSO concentration was 0.1% in the medium of all experimental groups.
For neurite outgrowth measurements, differentiated cells were washed with phosphate-buffered saline (PBS), collected after detachment and replated at a density of 5,000 cells/well (biocoat imaging 96 well plate) in complete medium supplemented with 100 ng/mL NGF, with or without 10 μM SP600125 (negative control), 1 mM dbcAMP (positive control), or tested compound at 5×10^−7 M. In the undifferentiated control group, no NGF was added after replating.
After 72 h in culture, PC-12 cells were washed with PBS and fixed in 1% paraformaldehyde solution for 20 minutes. After 3 washes with PBS, immunofluorescence labeling was performed with Texas Red Maleimide probe, which reacts with thiol groups of cysteine residues of proteins, permitting the visualization of the entire cell morphology, including neurites.
Immunofluorescence analysis was performed in automated confocal microscopy. Images were acquired with a BD pathway 855 system, under X20 objective with 8×8 field montage. Neurite outgrowth was then measured from acquired images with the neurite module of Metamorph® software. Total and mean outgrowth, total and mean number of processes per cell, and total and percentage of cells with extensive outgrowth (defined as outgrowth longer than 20 μm) were analyzed.

citrate synthase = assay: Citrate synthase activity in C2C12 myotubes; format: cell-based; conditions: 48 hr, punicalagin 1 or 10 μM, ellagic acid or urolithin 1, 10 or 50 μM (FIG. 4)
Protocol: The enzyme citrate synthase catalyzes the reaction between acetyl coenzyme A (acetyl CoA) and oxaloacetic acid to form citric acid. The acetyl CoA contributes 2 carbons to the 4 carbons of oxaloacetate, resulting in citrate with 6 carbons. The hydrolysis of the thioester of acetyl CoA results in the formation of CoA with a thiol group (CoA-SH). The activity of citrate synthase is measured via the reaction between the thiol of CoA-SH with the DTNB in the mixture to form 5-thio-2-nitrobenzoic acid (TNB). This yellow product (TNB) is observed spectrophotometrically by measuring absorbance at 412 nm (Citrate Synthase Assay Kit, Cat Number CS0720, Sigma Aldrich).
C2C12 myoblasts were differentiated into myotubes by serum deprivation for 4 days (Canto et al. (2009) Nature. 458:1056-60). Myotubes were incubated for 48 hr with punicalagin at a final concentration of 1 or 10 μM or with ellagic acid or urolithin at a final concentration of 1, 10 or 50 μM (all dissolved in DMSO, final concentration 0.1%). DMSO was used as a control (final concentration 0.1%). At the end of the treatment, cells were washed 3 times with PBS and assayed for citrate synthase activity according to manufacturer's instructions (Citrate Synthase Assay Kit, Cat Number CS0720, Sigma Aldrich).

[1] = test system: AMP-activated protein kinase (AMPK); assay: AMPK phosphorylation (Western blot) in C2C12 myotubes; format: cell-based; conditions: 1 hr, 50 μM, relative to control treated cells (FIG. 5A)
Protocol: C2C12 myoblasts were differentiated to myotubes by serum deprivation for 4 days (Canto et al. (2009) Nature. 458:1056-60). Myotubes were incubated for 1 hr with resveratrol (RSV), which served as a positive control, or ellagic acid (EA) or urolithin A (UL) at a final concentration of 50 μM (all dissolved in DMSO, final concentration 0.1%). DMSO was used as a control (final concentration of DMSO: 0.1%). At the end of the treatment, cells were washed 3 times with PBS, and AMP-activated protein kinase (AMPK) was assessed by Western blot. Following compound treatment, C2C12 cells were lysed in buffer containing phosphatase inhibitors, and protein concentration was determined using a standard Bradford assay. The equivalent of 25 μg of protein was used for separation on a 10% SDS-PAGE gel and subsequently transferred by standard Western blotting procedures. Antibodies directed to AMPK (Cell Signaling) and phosphorylated AMPK (P-AMPK, Cell Signaling) were used for detection.

Row | SMILES | glucose tolerance (oGTT, glycemia after 2 g/kg D-glucose) (HFD-fed C57BL6/J mice) | percent of cells showing significant outgrowth (>20 μm), increase vs differentiated cells (PC-12 cells) [%] | number of processes, increase (PC-12 cells) [%] | citrate synthase activity (citrate synthase) | levels of phosphorylation of AMPK (P-AMPK) [1]
1 | O=C1O[C@H]2[C@@H]3OC(=O)c4cc(O)c(O)c(O)c4-c4c(O)c(O)c5oc(=O)c6c(c(O)c(O)c7oc(=O)c4c5c76)-c4c(cc(O)c(O)c4O)C(=O)OC[C@H]3OC(O)[C@@H]2OC(=O)c2cc(O)c(O)c(O)c2-c2c1cc(O)c(O)c2O (mixture of isomers) [punicalagin, 2,3 hexahydroxydiphenoyl-4,6-gallagylglucose] | improved glucose tolerance | > 26 | 26.3 | increase citrate synthase activity in a dose-dependent manner | 
2 | O=c1oc2c(O)c(O)cc3c(=O)oc4c(O)c(O)cc1c4c23 [ellagic acid] | improved glucose tolerance |  |  | increase citrate synthase activity in a dose-dependent manner | increased
3 | O=c1oc2cc(O)ccc2c2ccc(O)cc12 [urolithin A, 3,8-Dihydroxydibenzo-α-pyrone] | improved glucose tolerance | 26 | 15.7 | increase citrate synthase activity in a dose-dependent manner | increased
